Experimental data: patent US8383139B2 (Bayer CropScience AG, priority 2008, dated 2013)

Key:
[1] = log P by HPLC on reversed-phase columns (C 18), EEC Directive 79/831 Annex V.A8; format: physicochemical; settings: for chromatographic logP: reversed-phase C18 HPLC column, pH 2.3, [a] HPLC, read-out: log p
[2] = test system: Sphaerotheca fuliginea; assay: Sphaerotheca test (cucumber)/protective; format: in vivo; settings: Podosphaera fuliginea, 168 h, 500 ppm active substance, protective, evaluation 7 days after inoculation, read-out: degree of effectiveness
Method: • Solvents: 49 parts by weight of N,N-dimethylformamide • Emulsifier: 1 part by weight of alkylaryl polyglycol ether (polyoxyethylene (16) tristearylphenyl ether) To prepare a suitable active substance composition, 1 part by weight of active substance is mixed with the given amounts of solvents and emulsifier and the concentrate is diluted to the desired concentration using water. For the testing of protective effectiveness, young cucumber plants are sprayed with the active substance composition in the application rate given. One day after the treatment, the plants are inoculated with a suspension of spores of Sphaerotheca fuliginea. Subsequently, the plants are placed in a greenhouse at 70% relative humidity and at a temperature of 23° C. Evaluation is carried out 7 days after the inoculation. In this connection, 0% means a degree of effectiveness corresponding to that of the control, while a degree of effectiveness of 100% means that no infestation is observed.

[3] = test system: Puccinia triticina; assay: Puccinia triticina test (wheat)/protective; format: in vivo; settings: 192 h, 500 ppm active substance, protective, evaluation 8 days after inoculation, read-out: degree of effectiveness
Method: • Solvent: 50 parts by weight of N,N-dimethylacetamide • Emulsifier: 1 part by weight of alkylaryl polyglycol ether (polyoxyethylene (16) tristearylphenyl ether) To prepare a suitable active substance composition, 1 part by weight of active substance is mixed with the given amounts of solvent and emulsifier and the concentrate is diluted to the desired concentration using water. For the testing of protective effectiveness, young plants are sprayed with the active substance composition in the application rate given. After the spray coating has been dried on, the plants are sprayed with spores with a suspension of spores of Puccinia triticina. The plants remain in an incubation chamber at 20° C. and 100% relative humidity for 48 hours. The plants are placed in a greenhouse at a temperature of approximately 20° C. and a relative humidity of approximately 80%. Evaluation is carried out 8 days after the inoculation. In this connection, 0% means a degree of effectiveness corresponding to that of the control, while a degree of effectiveness of 100% means that no infestation is observed.

[4] = test system: Septoria tritici; assay: Septoria tritici test (wheat)/protective; format: in vivo; settings: Zymoseptoria tritici, 504 h, 500 ppm active substance, protective, evaluation 21 days after inoculation, read-out: degree of effectiveness
Method: • Solvent: 50 parts by weight of N,N-dimethylacetamide • Emulsifier: 1 part by weight of alkylaryl polyglycol ether (polyoxyethylene (16) tristearylphenyl ether) To prepare a suitable active substance composition, 1 part by weight of active substance is mixed with the given amounts of solvent and emulsifier and the concentrate is diluted to the desired concentration using water. For the testing of protective effectiveness, young plants are sprayed with the active substance composition at the application rate given. After the spray coating has dried on, the plants are sprayed with a suspension of spores of Septoria tritici. The plants remain in an incubation chamber at 20° C. and 100% relative humidity for 48 hours. The plants are afterwards placed under a transparent hood at 15° C. and 100% relative humidity for a further 60 hours. The plants are placed in a greenhouse at a temperature of approximately 15° C. and a relative humidity of 80%. Evaluation is carried out 21 days after the inoculation. In this connection, 0% means a degree of effectiveness corresponding to that of the control, while a degree of effectiveness of 100% means that no infestation is observed.

[5] = acid region pH 2.3, 0.1% aqueous phosphoric acid and acetonitrile
[6] = [a] HPLC, acid region pH 2.3, 0.1% aqueous phosphoric acid and acetonitrile
[7] = [b] LC-MS, acid region pH 2.7, 0.1% aqueous formic acid and acetonitrile

| Structure (SMILES) | log p [1, 6] | log p [1, 7] | other results |
| --- | --- | --- | --- |
| CCN(C)C=Nc1cc(C)c(Oc2nc(Cc3cccc(OC)c3)ns2)cc1C [Example 16, N-ethyl-N′-(4-{[3-(3-methoxybenzyl)-1,2,4-thiadiazol-5-yl]oxy}-2,5-dimethylphenyl)-N-methylimidoformamide] |  |  | chromatographic logP [1, 5]: 1.7; pest or weed control at 500 ppm [2]: ≥ 70%; pest or weed control at 500 ppm [3]: ≥ 70%; pest or weed control at 500 ppm [4]: ≥ 70% |
| Cc1cc(Oc2nc(C(C)(C)c3ccc(Cl)cc3)ns2)c(Cl)cc1N=CN(C)C(C)C [Example 30, N′-[5-chloro-4-({3-[2-(4-chlorophenyl)propan-2-yl]-1,2,4-thiadiazol-5-yl}oxy)-2-methylphenyl]-N-methyl-N-(propan-2-yl)imidoformamide] |  |  | chromatographic logP [1, 5]: 2.86; pest or weed control at 500 ppm [2]: ≥ 70%; pest or weed control at 500 ppm [3]: ≥ 70% |
| Cc1cc(Oc2nc(Cc3ccc(Br)cc3)ns2)c(C)cc1N=CN1CCCCC1 [Example 33, 4-{[3-(4-bromobenzyl)-1,2,4-thiadiazol-5-yl]oxy}-2,5-dimethyl-N-(piperidin-1-ylmethylidene)aniline] |  |  | chromatographic logP [1, 5]: 2.17; pest or weed control at 500 ppm [2]: ≥ 70%; pest or weed control at 500 ppm [3]: ≥ 70%; pest or weed control at 500 ppm [4]: ≥ 70% |
| Cc1cc(Oc2nc(C3(c4ccc(Cl)cc4)CC3)ns2)c(Cl)cc1N=CN(C)C(C)C [Example 41, N′-[5-chloro-4-({3-[1-(4-chlorophenyl)cyclopropyl]-1,2,4-thiadiazol-5-yl}oxy)-2-methylphenyl]-N-methyl-N-(propan-2-yl)imidoformamide] |  |  | chromatographic logP [1, 5]: 2.71; pest or weed control at 500 ppm [2]: ≥ 70%; pest or weed control at 500 ppm [3]: ≥ 70%; pest or weed control at 500 ppm [4]: ≥ 70% |
| Cc1cc(Oc2nc(Cc3ccccc3F)ns2)c(C)cc1N=CN1CCCCC1 [Example 104] | 2.27^[a] |  |  |
| CCN(C)C=Nc1cc(C(C)C)c(Oc2nc(Cc3ccc(Cl)cc3Cl)ns2)cc1C [Example 108] | 2.93^[a] |  |  |
| CCN(C)C=Nc1cc(C(C)C)c(Oc2nc(Cc3ccc(Cl)cc3)ns2)cc1C [Example 109] | 2.71^[a] |  |  |
| CCN(C)C=Nc1cc(C(C)C)c(Oc2nc(Cc3ccc(F)cc3)ns2)cc1C [Example 110] | 2.41^[a] |  |  |
| Cc1cc(F)c(Br)cc1Cc1nsc(Oc2cc(C)c(N=CN3CCCCC3)cc2C)n1 [Example 115] | 2.76^[a] |  |  |
| CCN(C)C=Nc1cc(C)c(Oc2nc(Cc3cc(Br)c(F)cc3C)ns2)cc1C [Example 116] | 2.57^[a] |  |  |
| Cc1cc(Oc2nc(Cc3c(F)cc(F)cc3F)ns2)c(C)cc1N=CN1CCCCC1 [Example 117] | 2.33^[a] |  |  |
| CCN(C)C=Nc1cc(Cl)c(Oc2nc(Cc3ccc(Cl)cc3Cl)ns2)cc1C [Example 118] |  | 2.42^[b] |  |
| CCN(C)C=Nc1cc(Cl)c(Oc2nc(Cc3ccc(Br)cc3)ns2)cc1C [Example 119] |  | 2.26^[b] |  |
| CCN(C)C=Nc1cc(C)c(Oc2nc(Cc3ccc(C)cc3)ns2)cc1C [Example 120] |  | 2.12^[b] |  |
| Cc1cc(Oc2nc(Cc3ccccc3[N+](=O)[O-])ns2)c(C)cc1N=CN1CCCCC1 [Example 121] | 2.16^[a] |  |  |
| CCOCC(C1CC1)N(C)C=Nc1cc(C)c(Oc2nc(Cc3ccc(Cl)cc3)ns2)cc1C (stereo not shown) [Example 124] |  | 2.56^[b] |  |
| Cc1cc(Oc2nc(Cc3ccc(SC(F)(F)F)cc3)ns2)c(C)cc1N=CN(C)CC(F)F [Example 125] |  | 2.68^[b] |  |
| Cc1cc(Oc2nc(Cc3ccc(F)cc3)ns2)c(C)cc1N=CN(C)C1CC1 [Example 127] |  | 1.83^[b] |  |
| CCOCC(C1CC1)N(C)C=Nc1cc(C)c(Oc2nc(Cc3ccc(SC(F)(F)F)cc3)ns2)cc1C (stereo not shown) [Example 128] |  | 2.92^[b] |  |
| Cc1cc(Oc2nc(Cc3ccc(C(F)(F)F)cc3)ns2)c(C)cc1N=CN(C)CC(F)F [Example 129] |  | 2.38^[b] |  |
| Cc1cc(Oc2nc(Cc3ccc(C(F)(F)F)cc3)ns2)c(C)cc1N=CN(C)C1CC1 [Example 130] |  | 2.28^[b] |  |
| CCOCC(C1CC1)N(C)C=Nc1cc(C)c(Oc2nc(Cc3ccc(C(F)(F)F)cc3)ns2)cc1C (stereo not shown) [Example 133] |  | 2.43^[b] |  |
| Cc1ccc(Cc2nsc(Oc3cc(C)c(N=CN(C)C4CC4)cc3C)n2)cc1 [Example 138] |  | 2.19^[b] |  |
| CCOCC(NC=Nc1cc(C)c(Oc2nc(Cc3ccc(Cl)cc3)ns2)cc1C)C1CC1 (stereo not shown) [Example 139] | 2.7^[a] |  |  |
| CCOCC(C1CC1)N(C)C=Nc1cc(C)c(Oc2nc(Cc3ccc(C)cc3)ns2)cc1C (stereo not shown) [Example 140] |  | 2.4^[b] |  |
| Cc1cc(Oc2nc(Cc3ccc(OC(F)(F)F)cc3)ns2)c(C)cc1N=CN(C)C1CC1 [Example 141] |  | 2.2^[b] |  |
| Cc1cc(Oc2nc(Cc3ccc(OC(F)(F)F)cc3)ns2)c(C)cc1N=CN(C)CC(F)F [Example 142] |  | 2.46^[b] |  |

Continued, in another order:

| log p [1, 6] | log p [1, 7] | Structure (SMILES) | other results |
| --- | --- | --- | --- |
| 2.1^[a] |  | CCN(C)C=Nc1cc(C)c(Oc2nc(Cc3c(F)cc(F)cc3F)ns2)cc1C [Example 105] |  |
| 2.07^[a] |  | CCN(C)C=Nc1cc(C)c(Oc2nc(Cc3ccccc3[N+](=O)[O-])ns2)cc1C [Example 106] |  |
| 2.37^[a] |  | Cc1cc(Oc2nc(Cc3ccc4ccccc4c3)ns2)c(C)cc1N=CN1CCCCC1 [Example 107] |  |
| 2.75^[a] |  | CCN(C)C=Nc1cc(C(C)C)c(Oc2nc(Cc3ccc(Br)cc3)ns2)cc1C [Example 111] |  |
| 2.24^[a] |  | CCN(C)C=Nc1cc(C)c(Oc2nc(Cc3ccc4ccccc4c3)ns2)cc1C [Example 112] |  |
| 2.28^[a] |  | CCN(C)C=Nc1cc(C)c(Oc2nc(Cc3cccc(C)c3)ns2)cc1C [Example 113] |  |
| 2.44^[a] |  | Cc1cccc(Cc2nsc(Oc3cc(C)c(N=CN4CCCCC4)cc3C)n2)c1 [Example 114] |  |
| 2.49^[a] |  | Cc1ccc(Cc2nsc(Oc3cc(C)c(N=CN4CCCCC4)cc3C)n2)cc1 [Example 122] |  |
|  | 2.06^[b] | Cc1cc(Oc2nc(Cc3ccc(Cl)cc3)ns2)c(C)cc1N=CN(C)C1CC1 [Example 123] |  |
|  | 1.83^[b] | Cc1cc(Oc2nc(Cc3ccc(SC(F)(F)F)cc3)ns2)c(C)cc1N=CN(C)C1CC1 [Example 126] |  |
|  | 1.99^[b] | Cc1cc(Oc2nc(Cc3ccc(F)cc3)ns2)c(C)cc1N=CN(C)CC(F)F [Example 131] |  |
|  | 2.26^[b] | CCOCC(C1CC1)N(C)C=Nc1cc(C)c(Oc2nc(Cc3ccc(F)cc3)ns2)cc1C (stereo not shown) [Example 132] |  |
|  | 2.36^[b] | CCOCC(C1CC1)N(C)C=Nc1cc(C)c(Oc2nc(Cc3ccc(OC)cc3)ns2)cc1C (stereo not shown) [Example 134] |  |
|  | 1.92^[b] | COc1ccc(Cc2nsc(Oc3cc(C)c(N=CN(C)C4CC4)cc3C)n2)cc1 [Example 135] |  |
|  | 1.87^[b] | COc1ccc(Cc2nsc(Oc3cc(C)c(N=CN(C)CC(F)F)cc3C)n2)cc1 [Example 136] |  |
|  | 2.25^[b] | Cc1ccc(Cc2nsc(Oc3cc(C)c(N=CN(C)CC(F)F)cc3C)n2)cc1 [Example 137] |  |
|  | 2.75^[b] | CCOCC(C1CC1)N(C)C=Nc1cc(C)c(Oc2nc(Cc3ccc(OC(F)(F)F)cc3)ns2)cc1C (stereo not shown) [Example 143] |  |
